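Following 48 hours of exposure in 96-well plates, responses at five concentrations were used to interpolate endpoints linearly. Definition used: TGI = concentration required for complete inhibition of growth.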
Key:
Assay in all cases: NCI anticancer screen, dose series, 48 h
BT-549 breast = tested on: BT-549 breast
SK-OV-3 ovarian = tested on: SK-OV-3 ovarian
SN12C renal = tested on: SN12C renal
RPMI-8226 leukemia = tested on: RPMI-8226 leukemia
UACC-62 melanoma = tested on: UACC-62 melanoma
HOP-92 NSCLC = tested on: HOP-92 NSCLC
SNB-19 CNS = tested on: SNB-19 CNS
LOX IMVI melanoma = tested on: LOX IMVI melanoma
COLO 205 colon = tested on: COLO 205 colon
NCI-H226 lung = tested on: NCI-H226 lung
DU-145 prostate = tested on: DU-145 prostate
A549 NSCLC = tested on: A549 NSCLC
MALME-3M melanoma = tested on: MALME-3M melanoma
KM12 colon = tested on: KM12 colon
SK-MEL-5 melanoma = tested on: SK-MEL-5 melanoma
EKVX NSCLC = tested on: EKVX NSCLC
UACC-257 melanoma = tested on: UACC-257 melanoma
NCI/ADR-RES ovarian = tested on: NCI/ADR-RES ovarian
MCF7 breast = tested on: MCF7 breast
UO-31 renal = tested on: UO-31 renal
T-47D breast = tested on: T-47D breast
M14 melanoma = tested on: M14 melanoma
SNB-75 CNS = tested on: SNB-75 CNS
786-0 renal = tested on: 786-0 renal
ACHN renal = tested on: ACHN renal
SF-268 CNS = tested on: SF-268 CNS
OVCAR-3 ovarian = tested on: OVCAR-3 ovarian
MDA-MB-231 breast = tested on: MDA-MB-231 breast
SF-539 CNS = tested on: SF-539 CNS
SK-MEL-28 melanoma = tested on: SK-MEL-28 melanoma
PC-3 prostate = tested on: PC-3 prostate
NCI-H522 lung = tested on: NCI-H522 lung
HS 578T breast = tested on: HS 578T breast
OVCAR-8 ovarian = tested on: OVCAR-8 ovarian
SR leukemia = tested on: SR leukemia
U251 CNS = tested on: U251 CNS
IGROV1 ovarian = tested on: IGROV1 ovarian
HCT-15 colon = tested on: HCT-15 colon
SK-MEL-2 melanoma = tested on: SK-MEL-2 melanoma
SF-295 CNS = tested on: SF-295 CNS
CCRF-CEM leukemia = tested on: CCRF-CEM leukemia
OVCAR-4 ovarian = tested on: OVCAR-4 ovarian
MDA-MB-435 = tested on: MDA-MB-435
HT29 colon = tested on: HT29 colon
HL-60(TB) leukemia = tested on: HL-60(TB) leukemia
K-562 leukemia = tested on: K-562 leukemia
HCT-116 colon = tested on: HCT-116 colon
MDA-N = tested on: MDA-N
SW-620 colon = tested on: SW-620 colon
OVCAR-5 ovarian = tested on: OVCAR-5 ovarian
HCC-2998 colon = tested on: HCC-2998 colon
TK-10 renal = tested on: TK-10 renal
CAKI-1 renal = tested on: CAKI-1 renal
MOLT-4 leukemia = tested on: MOLT-4 leukemia
HOP-62 NSCLC = tested on: HOP-62 NSCLC
NCI-H23 lung = tested on: NCI-H23 lung

Measured: TGI

COC1CC(OC2C(C)OC(OC3C(C)OC(OC4C(C)OC(O[C@H]5CC[C@@]6(C)C(=CC[C@]7(O)[C@@H]6C[C@@H](OC(=O)/C=C/c6ccccc6)[C@@]6(C)[C@]7(O)CC[C@@]6(O)C(C)=O)C5)CC4OC)CC3OC)CC2OC)OC(C)C1O (stereo partly specified)
> 12.5 µM: all assays above

From PubChem BioAssay (NCI)
